Values after ≈ are worked out from the molar mass of the structure shown. Where two headings read alike, the source gives them in different places. Marks after values point to notes of the source that are not given here. One block for each compound: values may come before it.
Legend:
[1] = tested on: MV3 (human melanoma cells); assay: MTT reduction assay, killing tumor cells; type: cell-based; settings: four days culture with drug
Procedure: (§1) The experiment was carried out for methyl TMZ-8-carboxylate, butyl TMZ-8-carboxylate, n-hexyl TMZ-8-carboxylate, and TMZ acid which had been known as an active compound against carcinoma, and used fluorouracil injection (10 ml:0.25 g, purchased from Xudong Pharmaceutical Co. Ltd, the batch number was 000612) as the drug for the positive control. Cancer cell strains used in experiments included HCT-8(human colon carcinoma cells), A549 (human lung carcinoma cells), MCF-7(human breast carcinoma cells), Bel7402 (human liver carcinoma cells), BGC-823(human gastric carcinoma cells) and MV3 (human melanoma cells).
(§2) TMZ acid is white powder; Methyl TMZ-8-carboxylate, butyl TMZ-8-carboxylate and n-hexyl TMZ-8-carboxylate, white scaly crystals, manufactured by the method described in Example 2; Fluorouracil injection (10 ml: 0.25 g): as drug for the positive control, manufactured by Xudong Pharmaceutical Co. Ltd, the batch number 000612; RPMI: produced by GIBCO; Calf serum: manufactured by Sijiqing bio-engineer material Co. Ltd, Hangzhou; and MTT: produced by Bebco.
(§3) All cancer cell strains of HCT-8, A549, MCF-7, Bel-7402, BGC-823, MV3 and B16 was fostered and transferred of culture by Institute of Materia Medica, Chinese Academy of Medical Sciences and Peking Union Medical College.
(§4) Tetrazolium salt [3-(4,5-dimethylthiazol-2-yl)-2,5-diphenyl-tetrazolium bromide, MTT] reduction assay was used. All the well-grown carcinoma cells were collected, prepared intol 1×10^4/ml cell suspension with the RPMI 1640 culture solution containing 10% calf serum, and inoculated in 96-well culture plate, with 100 uL per well (containing 1000 cancer cells). After 24 hours of culture in 5% CO2 thermos incubator at temperature of 37° C. the drugs were added. Blank control group was established and the drug for the positive control was Fluorouracil. The tested drugs were divided into five groups at different concentrations, each concentration was tested for three times parallelly, and placed in 5% CO2 thermos incubator at temperature of 37° C. to culture for four days. The culture solution was discarded and 100 uL of MTT solution (0.4 mg/ml, prepared with RPMI 1640) was added per well to continue to culture for four hours at temperature of 37° C. The supernate was discarded and 150 uL of DMSO was added to dissolve Fomazan granules. After slight agitation, the OD value was measured with BIORAD 550 enzyme labeling instrument at the measuring wavelength of 540 nm and the reference wavelength of 450 nm.
(§5) Data of cell inhibiting rate was then plotted vs. the concentration of drugs to obtain the dose-reaction curve, by which 50% inhibitory concentration IC50 was calculated (see Table 1 and Table 2).

[2] = tested on: A549 (human lung carcinoma cells); assay: MTT reduction assay, killing tumor cells; type: cell-based; settings: four days culture with drug
Procedure: as §1, §2, §3, §4, §5

[3] = tested on: BGC-823(human gastric carcinoma cells); assay: MTT reduction assay, killing tumor cells; type: cell-based; settings: BGC-823 cells, four days culture with drug
Procedure: as §1, §2, §3, §4, §5

[4] = tested on: Bel7402 (human liver carcinoma cells); assay: MTT reduction assay, killing tumor cells; type: cell-based; settings: Bel-7402 cells, four days culture with drug
Procedure: as §1, §2, §3, §4, §5

[5] = tested on: HCT-8(human colon carcinoma cells); assay: MTT reduction assay, killing tumor cells; type: cell-based; settings: HCT-8 cells, four days culture with drug
Procedure: as §1, §2, §3, §4, §5

[6] = tested on: MCF-7(human breast carcinoma cells); assay: MTT reduction assay, killing tumor cells; type: cell-based; settings: MCF-7 cells, four days culture with drug
Procedure: as §1, §2, §3, §4, §5

[7] = studies published in WO0057867; cited from earlier work
[8] = tested on: HCT-8, A549, MCF-7, Bel7402, BGC-823 and MV3 cancer cell strains; assay: MTT reduction assay, summary over the selected cell strains; type: cell-based; settings: Homo sapiens; summary of Table 1 over all selected cell strains; read-out: IC50 ranges for the selected cell strains
Procedure: as §1, §4, §5

[9] = tested on: xenotransplanted human melanoma MV3; assay: Topical administration, growth of xenotransplanted human melanoma in MV3 nude mouse; type: in vivo, nude mouse of BALB/c-nu
Procedure: Hexyl TMZ-8-carboxylate was selected as the representative to investigate the influence of TMZ-8-carboxylate derivatives on the growth of xenotransplanted human melanoma in MV3 nude mouse.
Hexyl TMZ-8-carboxylate was dissolved in DMSO to obtain 50 mg/ml solution. Human melanoma was xenotransplanted to nude mouse of BALB/c-nu to allow it to grow. Until the tumor expanded to the volume of 100˜300 mm^3, all animals were divided into two groups in accordance with the size of tumor, eight mice per group.
Of these two groups, one was the treatment group in therapeutical treatment by spreading the solution of hexyl TMZ-8-carboxylate; another was the control group where the tumor grows naturally.
In the treatment group, the drug was administered by spreading drug at the position of tumor and surrounding area (2 cm×2 cm) twice a day (once on Saturday and Sunday). Every time, when the solution was dried, administration was repeated for 1 to 2 times. The daily average dose of hexyl TMZ-8-carboxylate administered for a mouse totally was about 20 mg.
The volume of tumor in mouse was measured twice a week, so as to observe and record their growth dynamically. Until the tumor of the control group grew up to a certain volume, all the mice were killed the tumors were stripped off and weighed, growth inhibition rate was calculated. Tumor proliferation (T/C(%)) was calculated using relative volume of tumor in two groups.
Tumor volume (TV) was calculated by the equation as follows: Length×width^2÷2
The relative tumor volume is calculated by the equation as follows: Vt/Vo
Wherein the Vo is the TV measured at the time when the animals were raised in separate cages, and […] is the TV measured each time after.
The t-test was used to compare the statistical difference between two groups in many indexes such as tumor weight, TV and RTV. The relative tumor proliferation rate (T/C(%))was used as the index of bioactivity for anti tumor, which was calculated as follows: […]
The effect was evaluated by statistical analysis. The effect was regarded as invalid when T/C (%) is more than 60, and as effective when T/C (%) is equal to or less than 60 and p<0.05.

[10] = Stability of TMZ-8-carboxylate derivatives in alcohols (HPLC); type: physicochemical; settings: room temperature, sampled up to 32 months
Procedure: n-hexyl TMZ-8-carboxylate was weighed accurately and prepared into 1% of solution by diluting respectively with methanol, ethanol, isopropanol and tert-butyl alcohol. Three sample solutions (20 ml) were taken out in each of above solutions and placed into 50 ml volumetric brown glass bottle, sealed and allowed to stand at room temperature. At time of 1, 4, 8, 12, 16, 20, 24, 28, 32 months after beginning, the solutions were sampled and determined the concentration of n-hexyl TMZ-8-carboxylate by HPLC, to calculate the average value of three parallel solutions and plotted.

[11] = Stability of TMZ-8-carboxylate in media of different pH (HPLC); type: physicochemical; settings: 1% aqueous solution, sampled up to 32 months
Procedure: The sodium hydroxide and citric acid were accurately weighed and respectively diluted with water to form the solution with the pH value of 7.5, 7.0, 6.5, 6.0 and 5.5. n-Hexyl TMZ-8-carboxylate was accurately weighed, and dissolved into said aqueous solutions with different pH values to form a series of 1% solutions of n-hexyl TMZ-8-carboxylate. Three sample solutions (20 ml) were taken out in each of above solutions and placed into 50 ml volumetric brown glass bottle, sealed and allowed to stand at room temperature. At 1, 4, 8, 12, 16, 20, 24, 28, 32 months after beginning, the solutions were sampled and determined the concentration of n-hexyl TMZ-8-carboxylate by HPLC, to calculate the average of three parallel solutions and plotted.

[12] = Homo sapiens, MV-3, 96 h, read-out: IC50
[13] = Homo sapiens, 96 h, read-out: IC50
[14] = Homo sapiens, MCF7, 96 h, read-out: IC50
[15] = 20 mg/day/mouse spread on tumor, beginning of test, X ± SD

Compound: O=c1[nH]cc(F)c(=O)[nH]1 [Fluorouracil, reference compound]
- IC50 [1, 12]: 0.427 µg/mL (≈ 3.28 µM)

Compound: Cn1nnc2c(C(=O)O)ncn2c1=O [TMZ acid, reference compound]
- IC50 [2]: >19.5 µg/mL
- IC50 [3]: >19.5 µg/mL
- IC50 [4]: 16.957 µg/mL (≈ 86.9 µM)
- IC50 [5]: 18.525 µg/mL (≈ 94.9 µM)
- IC50 [6]: 14.911 µg/mL (≈ 76.4 µM)
- IC50 [1]: 14.625 µg/mL (≈ 74.9 µM)

Compound: Cn1nnc2c(C(N)=O)ncn2c1=O [TMZ, Temozolomide]
- Permeation of artificial skin (silicon membrane), rat skin and human skin [7]: inability to permeate

More lines, main results first:

- IC50 [8]: 10 to 30 µg/mL (≈ 39.8 to 119 µM)
Compound: CCCCOC(=O)c1ncn2c(=O)n(C)nnc12 [butyl TMZ-8-carboxylate, Butyl 3,4-dihydro-3-methyl-4-oxoimidazo[5,1-d]-1,2,3,5-tetrazine-8-carboxylate]
- IC50 [2, 13]: 25.3 µg/mL (≈ 101 µM)
- IC50 [3, 13]: > 19.5 µg/mL
- IC50 [4, 13]: 24.4 µg/mL (≈ 97 µM)
- IC50 [5, 13]: 27.4 µg/mL (≈ 109 µM)
- IC50 [6, 14]: 16.6 µg/mL (≈ 65.9 µM)
- IC50 [1, 12]: 7.57 µg/mL (≈ 30.1 µM)

- IC50 [8]: 10 to 30 µg/mL (≈ 47.8 to 143 µM)
Compound: COC(=O)c1ncn2c(=O)n(C)nnc12 [methyl TMZ-8-carboxylate, Methyl 3,4-dihydro-3-methyl-4-oxoimidazo[5,1-d]-1,2,3,5-tetrazine-8-carboxylate]
- IC50 [2, 13]: 27 µg/mL (≈ 129 µM)
- IC50 [3, 13]: > 19.5 µg/mL
- IC50 [4, 13]: 25.3 µg/mL (≈ 121 µM)
- IC50 [5, 13]: 28.4 µg/mL (≈ 136 µM)
- IC50 [6, 14]: 17.7 µg/mL (≈ 84.5 µM)
- IC50 [1, 12]: 8.83 µg/mL (≈ 42.2 µM)

- IC50 [8]: 10 to 30 µg/mL (≈ 35.8 to 107 µM)
- Stability in ethanol ([10]; 1% solution in ethanol): rapidly decomposes
- Stability in isopropanol ([10]; 1% solution in isopropanol): keeps stable
- Stability in methanol ([10]; 1% solution in methanol): rapidly decomposes
- Stability in tert-butyl alcohol ([10]; 1% solution in tert-butyl alcohol): keeps stable
- Stability in acidic (pH<7.0) medium ([11]; pH 6.5, 6.0 and 5.5, room temperature): keep relatively stable
- Stability in neutral (pH7.0) medium ([11]; pH7.0, room temperature): rapidly decomposes
- Stability in weakly alkaline (pH7.5) medium ([11]; pH7.5, room temperature): rapidly decomposes
Compound: CCCCCCOC(=O)c1ncn2c(=O)n(C)nnc12 [n-hexyl TMZ-8-carboxylate, n-hexyl 3,4-dihydro-3-methyl-4-oxoimidazo[5,1-d]-1,2,3,5-tetrazine-8-carboxylate]
- IC50 [3, 13]: > 19.5 µg/mL
- IC50 [6, 14]: 20 µg/mL (≈ 71.6 µM)
- IC50 [1, 12]: 8.84 µg/mL (≈ 31.6 µM)
- Effect on the growth of carcinomas in the mice ([9]; 20 mg daily externally administered per mouse, human melanoma MV3): significant inhibiting effects
- Body weight(g) Beginning test [9, 15]: 24.0 ± 1.48 g
- Tumor volume (mm^3) Beginning test [9, 15]: 115 ± 36 mm^3
- Body weight(g) End test ([9]; 20 mg/day/mouse spread on tumor, end of test, X ± SD): 25.6 ± 3.64 g
- Tumor volume (mm^3) End test ([9]; 20 mg/day/mouse spread on tumor, end of test, X ± SD, P < 0.05 vs control): 635 ± 545.1* mm^3
- Weight of tumor ([9]; 20 mg/day/mouse topical, end of test, X ± SD): 0.45 ± 0.335 g
- Inhibiting rate (%) ([9]; growth inhibition rate from tumor weight, 20 mg/day/mouse topical): 83.2%
- T/C(%) ([9]; relative tumor proliferation rate, 20 mg/day/mouse topical, effective if <= 60 and p<0.05): 33.7%
- RTV ([9]; relative tumor volume Vt/Vo, 20 mg/day/mouse topical): 3.25 ± 1.85

— patent publication US7579336B2, “Pharmaceutical composition comprising temozolomide ester” (Tian Jin Tasly Group Co., Ltd., priority 2004, dated 2009)
